Patent US20220257805A1, “PHARMACEUTICAL FORMULATIONS AND METHODS FOR DELIVERING A THERAPEUTIC, DIAGNOSTIC, OR IMAGING AGENT TO CD206” (Syracuse University, priority 2019, published 2022)
“Also recorded” adds a separate entry of the source.

Legend:
BN16 cells = assay: Flow cytometry of cellular association in BN16 cells (CUBN positive, CD206 negative); type: cell-based, Brown Norway rat; conditions: 200 nM, HBSS, 1 h
Method: (§1) Cellular association via the typical holo-IF target receptor, CUBN, was conducted in CUBN positive, CD206 negative (see western blot, FIG. 10) BN16 (Brown Norway rat yolk) cells via flow cytometry using fluorescent B12-Cy5 to show functionalization of the IF-B12 complex in vitro (FIG. 3).
(§2) Flow cytometry: Flow cytometry analyses were carried out on a Becton Dickinson LSRII Cell Analyzer.
(§3) Cell culture: Cell lines J774A.1 (ATCC TIB-67; CD206 positive), CHO-K1 (ATCC CCL-61; control line) and HepG2 (SIGMA 85011430; ASGPR positive) were obtained from the American Type Culture Collection (ATCC). BN16 cells (cubilin positive) were kindly provided by Prof. Pierre Verroust (INSERM, Paris, France). J774A.1 and BN16 cells were cultured as adherent monolayers in DMEM supplemented with 10% FBS and 1% pen/strep (Penicillin-streptomycin solution with 10,000 units penicillin and 10 mg/mL streptomycin in 0.9% NaCl obtained from Thermo Fisher). CHO-K1 were cultured as adherent monolayers in F12-K supplemented with 10% FBS and 1% pen/strep. Cells were incubated at 37° C. with 5% C02. Hank's balanced salt solution (HBSS) was purchased from Sigma. […]
(§4) Flow cytometry measurements of cellular internalization: Cells were plated on a 6-well plate and allowed to adhere for at least 24 h until at least 80% confluency. […] All cells were excited at 640 nm and detected at 660±20 nm.

CHO-K1 cells = assay: Flow cytometry of uptake in CHO-K1 cells (CUBN and CD206 free); type: cell-based, Chinese hamster; conditions: 100 nM in HBSS
Method: as §1, §2, §3, §4

HepG2 cells = assay: Flow cytometry of uptake in HepG2 cells (ASGPR positive); type: cell-based; conditions: 100 nM in HBSS
Method: as §1, §2, §3, §4

J774A.1 cells = assay: Flow cytometry of uptake in J774A.1 macrophage cells (CUBN-, CD206+), with or without mannan block; type: cell-based
Method: Adding mannan (2 mg/mL), 45 minutes prior to, and concomitant with IF-B12-Cy5 incubation, reduced IF-B12-Cy5 uptake (FIG. 3) supporting a mannose receptor mediated process.
as §2
Cell culture: Cell lines J774A.1 (ATCC TIB-67; CD206 positive), CHO-K1 (ATCC CCL-61; control line) and HepG2 (SIGMA 85011430; ASGPR positive) were obtained from the American Type Culture Collection (ATCC). BN16 cells (cubilin positive) were kindly provided by Prof. Pierre Verroust (INSERM, Paris, France). J774A.1 and BN16 cells were cultured as adherent monolayers in DMEM supplemented with 10% FBS and 1% pen/strep (Penicillin-streptomycin solution with 10,000 units penicillin and 10 mg/mL streptomycin in 0.9% NaCl obtained from Thermo Fisher). CHO-K1 were cultured as adherent monolayers in F12-K supplemented with 10% FBS and 1% pen/strep. Cells were incubated at 37° C. with 5% C02. Hank's balanced salt solution (HBSS) was purchased from Sigma. Charcoal stripped fetal bovine serum (FBS) and were purchased from Sigma.
as §4

human gastric IF = molecular target: T1, human gastric IF (Homo sapiens, UniProt P27352); assay: IF binding affinity, radiometric chase assay using 57Co-B12; conditions: cold tracer
T1 construct: purchased Xeragenx LLC (St. Louis, Mo., USA); host or cells: Arabidopsis thaliana
Method: To confirm IF binding of ^89Zr-B12, a radiometric chase assay[15] was completed with a ‘cold’ ^91Zr bound to B12 tracer (^91Zr-B12) and compared to free B12, as cyanocobalamin (CN-B12) (FIG. 2). ^91Zr-B12 was made using B12-DFO and chelated to ^91ZrCl4 at pH 7-7.5. IF binding of ^91Zr-B12 was maintained at low nanomolar levels (1.57 nM), similar to CN-B12 control (1.36 nM).
IF binding affinities: To confirm that ^89Zr-B12 will bind to IF, a radiometric chase assay, using ^57Co-B12 was completed (as previously reported)[15] with a cold tracer (^91Zr-B12) and compared to free B12, as cyanocobalamin (CN-B12). Zr-B12 was made using B12-DFO and chelated to ZrCl4 at pH 7.5.

T1 sequence (P27352 19-417): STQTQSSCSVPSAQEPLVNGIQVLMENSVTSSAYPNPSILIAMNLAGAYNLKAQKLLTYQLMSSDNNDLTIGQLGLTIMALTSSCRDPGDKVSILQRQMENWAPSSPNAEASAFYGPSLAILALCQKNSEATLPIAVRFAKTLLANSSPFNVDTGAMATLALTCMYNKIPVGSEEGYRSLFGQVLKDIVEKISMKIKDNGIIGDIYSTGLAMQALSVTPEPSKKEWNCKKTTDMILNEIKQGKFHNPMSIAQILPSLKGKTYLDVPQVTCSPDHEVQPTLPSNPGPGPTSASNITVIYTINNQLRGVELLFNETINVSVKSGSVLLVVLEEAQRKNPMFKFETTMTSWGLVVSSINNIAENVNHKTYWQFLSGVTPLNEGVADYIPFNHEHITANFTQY

| Substance | cellular association (flow cytometry) at 4° C. (BN16 cells; 4° C.) | cellular association (flow cytometry) (BN16 cells; 37° C.) | uptake / internalization (flow cytometry) (CHO-K1 cells) | uptake / internalization (flow cytometry) (HepG2 cells) | binding / uptake (flow cytometry) (J774A.1 cells; 200 nM, HBSS, 1 h, 37° C.) | uptake with mannan block (J774A.1 cells; mannan 2 mg/mL 45 minutes prior to and concomitant with incubation) | Kd (human gastric IF) |
| --- | --- | --- | --- | --- | --- | --- | --- |
| IF-B12-Cy5: B12-Cy5 bound to recombinant human intrinsic factor (IF-B12 complex) | Reduction in binding (or internalization) | significant association | Neither compound was internalized | not internalized | binding | reduced; also recorded: near complete block in uptake |  |
| cyanocobalamin [CN-B12] |  |  |  |  |  |  | 1.36 nM |
